Among the data in PubChem BioAssay (NCI) are TGI and GI50 values, retold here.

Values joined by “and” are separate entries in the source; they are usually repeats but may differ in a detail not shown here. Equal values may be shown once.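 Values below derive from 48-hour exposures of cells grown in 96-well plates, with endpoints linearly interpolated between the two concentrations bracketing the appropriate inhibition level. GI50 marks 50% less growth. TGI: total growth inhibition.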 A value given as a limit tells only on which side of the number the result lay.

Test systems include CAKI-1 renal; CCRF-CEM leukemia; DMS 114 small cell lung; K-562 leukemia; NCI-H522 lung; OVCAR-4 ovarian; RPMI-8226 leukemia; SNB-78 CNS; UACC-257 melanoma; T-47D breast.
Experiment in all cases: inhibition of tumour cell growth, NCI panel, 48 h

For the compound `Cc1c(C(=O)C/C(=N/NC(=O)C[n+]2ccccc2)C(=O)Nc2ccccc2)[n+](=O)c2ccccc2n1O`, the TGI with CAKI-1 renal, in the test on CCRF-CEM leukemia, with DMS 114 small cell lung, in the test on K-562 leukemia, with NCI-H522 lung and in the test with OVCAR-4 ovarian was above 100 µM each time. Further, the TGI in the test with RPMI-8226 leukemia, with SNB-78 CNS and with UACC-257 melanoma was above 100 µM throughout.
Take `CN(N=O)C(=O)N[C@@H](C=O)[C@@H](O)[C@H](O)[C@H](O)CO`: the GI50 is above 750 µM with CAKI-1 renal; above 750000 nM in the test on CCRF-CEM leukemia; above 750 µM with DMS 114 small cell lung; above 750000 nM in the test on K-562 leukemia; above 750000 nM in the test with NCI-H522 lung; above 750 µM in the test on OVCAR-4 ovarian. For the same compound, the figures for the GI50 with RPMI-8226 leukemia and with UACC-257 melanoma were above 750000 nM and above 750 µM, respectively. The TGI in the test on CAKI-1 renal was 457 µM and > 750 µM; in the test with CCRF-CEM leukemia, 522 µM and > 750 µM; in the test with DMS 114 small cell lung it was 599 µM and > 750 µM; in the test on K-562 leukemia, 560 µM and > 750 µM; with NCI-H522 lung it was 646 µM and > 750 µM; with OVCAR-4 ovarian, 609 µM and > 750 µM. In addition, the TGI in the test with RPMI-8226 leukemia is 612 µM and > 750 µM; with SNB-78 CNS it was 608 µM; in the test with T-47D breast it was above 750 µM; in the test on UACC-257 melanoma, above 750 µM.
Turning to `O=C([O][Hg][CH2]C1COC([CH2][Hg][O]C(=O)c2ccccc2)CO1)c1ccccc1` (configuration not stated), the GI50 was 3.38 µM in the test with CAKI-1 renal; 958 nM and 1170 nM with CCRF-CEM leukemia; 15 µM with DMS 114 small cell lung; 648 nM and 945 nM in the test on K-562 leukemia; 1470 nM and 1140 nM with NCI-H522 lung; 11.3 µM in the test with OVCAR-4 ovarian. The GI50 in the test on RPMI-8226 leukemia was 1970 nM and 2140 nM; in the test on SNB-78 CNS, 12.2 µM; in the test on T-47D breast, 1880 nM and 1700 nM; in the test with UACC-257 melanoma, 14.8 µM and 1.98 µM. Further, the TGI was 6.76 µM in the test with CAKI-1 renal; 3.64 µM in the test on CCRF-CEM leukemia; 28.8 µM with DMS 114 small cell lung; 2.87 µM in the test with K-562 leukemia; 3.78 µM and 4.64 µM in the test on NCI-H522 lung; 25.2 µM in the test on OVCAR-4 ovarian. Moreover, the TGI in the test on RPMI-8226 leukemia was 8.46 µM and 6.07 µM; in the test on SNB-78 CNS, 32.6 µM; with T-47D breast, 4.06 µM and 4.17 µM; in the test with UACC-257 melanoma, 28.1 µM and 3.98 µM.
